Our source for the Emax values is US11926574B2, “Dimethoxyphenylalkylamine activators of serotonin receptors” (Entheogenix Biosciences, Inc., priority 2021, dated 2024).

Where a name gives a salt, the structure may show the parent alone.

The target of this assay is 5HT2A (Homo sapiens, UniProt P28223). Briefly: 5HT2A Activity (% Max Activation @ 0.3 uM). In kind it is cell-based.
Chain of 5HT2A (P28223 whole entry): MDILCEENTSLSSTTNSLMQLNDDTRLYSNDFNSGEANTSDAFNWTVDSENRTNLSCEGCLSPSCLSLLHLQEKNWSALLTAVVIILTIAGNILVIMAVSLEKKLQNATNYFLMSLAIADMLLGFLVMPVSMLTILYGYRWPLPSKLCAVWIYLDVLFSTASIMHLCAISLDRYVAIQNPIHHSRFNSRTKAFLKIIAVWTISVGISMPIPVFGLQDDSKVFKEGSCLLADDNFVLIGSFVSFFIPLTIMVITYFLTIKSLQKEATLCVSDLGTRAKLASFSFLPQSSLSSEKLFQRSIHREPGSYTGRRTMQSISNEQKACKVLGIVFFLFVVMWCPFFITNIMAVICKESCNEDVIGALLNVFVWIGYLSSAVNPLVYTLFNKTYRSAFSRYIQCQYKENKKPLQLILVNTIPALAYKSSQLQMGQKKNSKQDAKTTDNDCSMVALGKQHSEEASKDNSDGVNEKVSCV
In the case of `CCc1cc(OC)c(CCNCc2cc(C)cc(Cl)c2)cc1OC` [Compound 2-19, N-(3-chloro-5-methylbenzyl)-2-(4-ethyl-2,5-dimethoxyphenyl)ethan-1-amine], the maximal effect (Emax) (commonly the greatest response seen or fitted, relative to the assay's reference) at 0.3 µM turned out to be 84%.

Compound `COc1ccc(OC)c(CCNCc2cc(C)ccc2Cl)c1` [Compound 2-4, N-(2-chloro-5-methylbenzyl)-2-(2,5-dimethoxyphenyl)ethan-1-amine] displayed an Emax at 0.3 µM of 67%.

For `COc1ccc(OC)c(CCNCc2cc(Cl)cc(Cl)c2)c1` [Compound 2-6, N-(3,5-dichlorobenzyl)-2-(2,5-dimethoxyphenyl)ethan-1-amine], the Emax at 0.3 µM came out at 68%. Consider `COc1ccc(OC)c(CCNCc2cc(C)cc(I)c2)c1` [Compound 2-11, 2-(2,5-dimethoxyphenyl)-N-(3-iodo-5-methylbenzyl)ethan-1-amine], for which the Emax at 0.3 µM came to 76%. `COc1ccc(OC)c(CC(CO)NCc2cc(C)cc(Cl)c2)c1` (centres unmarked) [Compound 2-29, 2-((3-chloro-5-methylbenzyl)amino)-3-(2,5-dimethoxyphenyl)propan-1-ol] registered an Emax at 0.3 µM of 27%. On to `COc1ccc(OC)c2c1CCC(NCc1ccccc1)C2` (centres unmarked) [Compound 1-18, N-benzyl-5,8-dimethoxy-1,2,3,4-tetrahydronaphthalen-2-amine], for which the maximum response (Emax) at 0.3 µM amounted to 6%.

As to `COc1ccc(OC)c2c1CCC(NCc1ccc(Cl)cc1C)C2` (centres unmarked) [Compound 1-11, N-(4-chloro-2-methylbenzyl)-5,8-dimethoxy-1,2,3,4-tetrahydronaphthalen-2-amine], the Emax at 0.3 µM turned out to be 1%. Compound `COc1ccc(OC)c2c1CCC(NCc1cc(C)cc(I)c1)C2` (centres unmarked) [Compound 1-5, N-(3-iodo-5-methylbenzyl)-5,8-dimethoxy-1,2,3,4-tetrahydronaphthalen-2-amine] registered an Emax at 0.3 µM of 12%.

As for `COc1cc(S(C)(=O)=O)c(OC)cc1CCNCc1cc(C)cc(Cl)c1` [Compound 2-26, (3-chloro-5-methylbenzyl)-2-(2,5-dimethoxy-4-(methylsulfonyl)phenyl)ethan-1-amine], the Emax at 0.3 µM worked out at 95%. In turn, `COc1ccc(OC)c(CCNCc2cccc(Cl)c2C)c1` [Compound 2-15] had an Emax at 0.3 µM of 20%. `COc1ccc(OC)c2c1CCC(NCc1cccc(C)c1Cl)C2` (centres unmarked) [Compound 1-10, N-(2-chloro-3-methylbenzyl)-5,8-dimethoxy-1,2,3,4-tetrahydronaphthalen-2-amine] returned an Emax at 0.3 µM of 2%. For `COc1ccc(OC)c(CCNCc2cccc(Cl)c2Cl)c1` [Compound 2-8, N-(2,3-dichlorobenzyl)-2-(2,5-dimethoxyphenyl)ethan-1-amine], the Emax at 0.3 µM came out at 33%. Then `COc1ccc(OC)c2c1CCC2NCc1cc(C)cc(Cl)c1` (centres unmarked) [Compound 1-21, N-(3-chloro-5-methylbenzyl)-4,7-dimethoxy-2,3-dihydro-1H-1-inden-1-amine], with 9%.

`COc1cc(C)c(OC)c2c1CC(NCc1cc(C)cc(Cl)c1)CC2` (centres unmarked) [Compound 1-19, N-(3-chloro-5-methylbenzyl)-5,8-dimethoxy-6-methyl-1,2,3,4-tetrahydro-naphthalen-2-amine hydrochloride] displayed a maximum response (Emax) at 0.3 µM of 73%. Compound `COc1ccc(OC)c(CCNCc2ccc(Cl)c(C)c2)c1` [Compound 2-14, N-(4-chloro-3-methylbenzyl)-2-(2,5-dimethoxyphenyl)ethan-1-amine] returned an Emax at 0.3 µM of 1%. For the compound `COc1ccc(OC)c(C(O)CNCc2cc(C)cc(Cl)c2)c1` (centres unmarked) [Compound 2-30, 2-((3-chloro-5-methylbenzyl)amino)-1-(2,5-dimethoxyphenyl)ethan-1-ol], the Emax at 0.3 µM came to 80%.

`COc1ccc(OC)c(CCNCc2cc(C)cc(Br)c2)c1` [Compound 2-10, N-(3-bromo-5-methylbenzyl)-2-(2,5-dimethoxyphenyl)ethan-1-amine] returned an Emax at 0.3 µM of 79%. `COc1cc(SC)c(OC)cc1CCNCc1cc(C)cc(Cl)c1` [Compound 2-24, N-(3-chloro-5-methylbenzyl)-2-(2,5-dimethoxy-4-(methylthio)phenyl)ethan-1-amine] yielded an Emax at 0.3 µM of 91%.

As for `COc1ccc(OC)c([C@H](O)CNCc2cc(C)cc(Cl)c2)c1` [Compound 2-33, (S)-2-((3-chloro-5-methylbenzyl)amino)-1-(2,5-dimethoxyphenyl)ethan-1-ol], the Emax at 0.3 µM came to 39%.

`COc1ccc(OC)c2c1CCC(NCc1cc(C)cc(Br)c1)C2` (centres unmarked) [Compound 1-4, N-(3-bromo-5-methylbenzyl)-5,8-dimethoxy-1,2,3,4-tetrahydronaphthalen-2-amine] had an Emax at 0.3 µM of 42%. As for `COc1ccc(OC)c(CCNCc2ccc(C)cc2Cl)c1` [Compound 2-3, N-(2-chloro-4-methylbenzyl)-2-(2,5-dimethoxyphenyl)ethan-1-amine], the maximal effect (Emax) at 0.3 µM was 8%. In turn, `COc1ccc(OC)c2c1CCC(NCc1cc(C)ccc1Cl)C2` (centres unmarked) [Compound 1-13, N-(2-chloro-5-methylbenzyl)-5,8-dimethoxy-1,2,3,4-tetrahydronaphthalen-2-Amine] gave an Emax at 0.3 µM of 15%.

Regarding `COc1ccc(OC)c([C@@H](O)CNCc2cc(C)cc(Cl)c2)c1` [Compound 2-32, (R)-2-((3-chloro-5-methylbenzyl)amino)-1-(2,5-dimethoxyphenyl)ethan-1-ol], the Emax at 0.3 µM was determined as 83%. As for `COc1cc(CCNCc2cc(C)cc(Cl)c2)c(OC)cc1Cl` [Compound 2-21, 2-(4-chloro-2,5-dimethoxyphenyl)-N-(3-chloro-5-methylbenzyl)ethan-1-amine], the figure is 92%; as for `COc1ccc(OC)c(CCNCc2cc(Cl)ccc2C)c1` [Compound 2-12, N-(5-chloro-2-methylbenzyl)-2-(2,5-dimethoxyphenyl)ethan-1-amine], 41%. The compound `COc1cc(N2CCOCC2)c(OC)cc1CCNCc1cc(C)cc(Cl)c1` [Compound 2-31, N-(3-chloro-5-methylbenzyl)-2-(2,5-dimethoxy-4-morpholinophenyl)ethan-1-amine] displayed an Emax at 0.3 µM of 41%.

As for `COc1cc(CCNCc2cc(C)cc(Cl)c2)c(OC)cc1C` [Compound 2-18, N-(3-chloro-5-methylbenzyl)-2-(2,5-dimethoxy-4-methylphenyl)ethan-1-amine], the maximal response (Emax) at 0.3 µM was 94%.

Consider `COc1cc(CCNCc2cc(C)cc(Cl)c2)c(OC)cc1C#N` [Compound 2-23, 4-(2-((3-chloro-5-methylbenzyl)amino)ethyl)-2,5-dimethoxybenzonitrile], for which the Emax at 0.3 µM amounted to 96%. The compound `COc1ccc(OC)c2c1CCC(NCc1cc(Cl)cc(Cl)c1)C2` (centres unmarked) [Compound 1-15, N-(3,5-dichlorobenzyl)-5,8-dimethoxy-1,2,3,4-tetrahydronaphthalen-2-amine] yielded an Emax at 0.3 µM of 11%. As for `COc1cc(CCNCc2cc(C)cc(Cl)c2)c(OC)cc1Br` [Compound 2-22, 2-(4-bromo-2,5-dimethoxyphenyl)-N-(3-chloro-5-methylbenzyl)ethan-1-amine], the figure is 85%; as for `COc1ccc(OC)c2c1CCC(NCc1cc(C)cc(Cl)c1)C2` (centres unmarked) [Compound 1-1, N-(3-chloro-5-methylbenzyl)-5,8-dimethoxy-1,2,3,4-tetrahydronaphthalen-2-amine], 67%; as for `COc1ccc(OC)c2c1CCC(NCc1cc(C)cc(F)c1)C2` (centres unmarked) [Compound 1-3, N-(3-fluoro-5-methylbenzyl)-5,8-dimethoxy-1,2,3,4-tetrahydronaphthalen-2-amine], 76%. `COc1ccc(OC)c2c1CCC(NCc1cccc(Cl)c1C)C2` (centres unmarked) [Compound 1-9, N-(3-chloro-2-methylbenzyl)-5,8-dimethoxy-1,2,3,4-tetrahydronaphthalen-2-amine] showed an Emax at 0.3 µM of 7%. Regarding `COc1ccc(OC)c2c1CCC(NCc1ccc(C)cc1Cl)C2` (centres unmarked) [Compound 1-12, N-(2-chloro-4-methylbenzyl)-5,8-dimethoxy-1,2,3,4-tetrahydronaphthalen-2-amine], the Emax at 0.3 µM is 4%. `COc1ccc(OC)c(CCNCc2cc(C)cc(F)c2)c1` [Compound 2-2, 2-(2,5-dimethoxyphenyl)-N-(3-fluoro-5-methylbenzyl)ethan-1-amine] showed a maximal effect (Emax) at 0.3 µM of 76%. The compound `COc1cc([S+](C)[O-])c(OC)cc1CCNCc1cc(C)cc(Cl)c1` (centres unmarked) [Compound 2-25, N-(3-chloro-5-methylbenzyl)-2-(2,5-dimethoxy-4-(methylsulfinyl)phenyl)-ethan-1-amine] had an Emax at 0.3 µM of 95%. As for `COc1cc(CCNCc2cc(C)cc(Cl)c2)c(OC)cc1F` [Compound 2-20, N-(3-chloro-5-methylbenzyl)-2-(4-fluoro-2,5-dimethoxyphenyl)ethan-1-amine], the Emax at 0.3 µM came to 89%.

Compound `COc1ccc(OC)c2c1CCC(NCc1cccc(Cl)c1Cl)C2` (centres unmarked) [Compound 1-17, N-(2,3-dichlorobenzyl)-5,8-dimethoxy-1,2,3,4-tetrahydronaphthalen-2-amine] returned an Emax at 0.3 µM of 1%. `COc1ccc(OC)c2c1CC(NCc1cc(C)cc(Cl)c1)C2` [Compound 1-20, N-(3-chloro-5-methylbenzyl)-4,7-dimethoxy-2,3-dihydro-1H-inden-2-amine hydrochloride] yielded an Emax at 0.3 µM of 59%.

Compound `COc1ccc(OC)c(CCNCc2cc(C)cc([N+](=O)[O-])c2)c1` [Compound 2-9, 2-(2,5-dimethoxyphenyl)-N-(3-methyl-5-nitrobenzyl)ethan-1-amine] yielded a maximum response (Emax) at 0.3 µM of 5%.

With `COc1cc(I)c(OC)c2c1CC(NCc1cc(C)cc(Cl)c1)CC2` (centres unmarked) [Compound 1-2A, N-(3-chloro-5-methylbenzyl)-6-iodo-5,8-dimethoxy-1,2,3,4-tetrahydronaphthalen-2-amine], the Emax at 0.3 µM was determined as 73%. `COc1cc([S@](C)(=N)=O)c(OC)cc1CCNCc1cc(C)cc(Cl)c1` [Compound 2-34, (R)-(4-(2-((3-chloro-5-methylbenzyl)amino)ethyl)-2,5-dimethoxyphenyl)(imino)(methyl)-16-sulfanone] registered an Emax at 0.3 µM of 56%. Regarding `COc1ccc(OC)c(CCNCc2cccc(C)c2Cl)c1` [Compound 2-16, N-(2-chloro-3-methylbenzyl)-2-(2,5-dimethoxyphenyl)ethan-1-amine], the Emax at 0.3 µM was 64%. On to `COc1cc([S@@](C)(=N)=O)c(OC)cc1CCNCc1cc(C)cc(Cl)c1` [Compound 2-35, (S)-(4-(2-((3-chloro-5-methylbenzyl)amino)ethyl)-2,5-dimethoxyphenyl)(imino)(methyl)-16-sulfanone], for which the Emax at 0.3 µM came to 50%.
